Holding throughout (type): physicochemical
The nature of one data set: Hygroscopicity.
The nature of data set [1]: Dissolution experiments (dissolution kinetics in water). The procedure:
For each timepoint (5 min, 10 min, 20 min, 35 min, 60 min and 1440 min) of the dissolution experiment, three samples each of X-ray amorphous and crystalline ciclesonide were prepared by weighing a defined amount of in each case about 15 mg into a 250 ml conical wide-necked Erlenmeyer flask and stirring (850 rpm, glass coated magnetic stir bar, having a length of 2.4 cm and a diameter of 0.59 cm) the samples at 37° C. in 100 ml water (Millipore quality, ELIX 3, Gradient A 10, pH 5.92-6.00). The moment of the addition of water was defined as t0. The tempering of the samples was performed using an air bath. After the desired stirring time, the complete samples were filtered through a 0.2 μm membrane filter (Schleicher & Schuell, RC 0.2 μm Spartan 30/A) and concentrated on a Sep-Pak cartridge (Waters Sep-Pak cartridge C18, WAT051910). The cartridge was then eluted with ethanol (gradient grade, Merck). The ciclesonide in the ethanol solution was then quantified by HPLC (LaChrom®-HPLC System Series 7000, column: Zorbax SB phenyl, eluent: water/ethanol 38%: 62% (v/v) isocratic, column temperature: 60° C., injection volume: 50 μL, UV-detection at 243 nm) against an external standard.

A short description of data set [2]: Saturation solubility experiments. The conditions noted are these: water, 24 hours stirring after ultrasonic treatment. Here is the method: Defined amounts of in each case about 14 to 25 mg of X-ray amorphous or crystalline ciclesonide were weighed into a conical Erlenmeyer flask equipped with a rubber stopper (n=3). 100 ml of water (Millipore quality. ELIX 3. Gradient A 10, pH 5.92-6.00) were added and 30 minutes of ultrasonic treatment was applied to the samples. Afterwards the samples were stirred in the dark for 24 hours at 37° C. in a water bath. After the desired stirring time, each sample was filtered through a 0.2 μm membrane filter (Schleicher & Schuell, RC 0.2 μm Spartan 30/A) and concentrated on a Sep-Pak cartridge (Waters Sep-Pak cartridge C18, WAT051910). Then the cartridge was eluted with ethanol (gradient grade, Merck). The ciclesonide in the ethanol solution was then quantified by HPLC (LaChrom®-HPLC System Series 7000, column: Zorbax SB phenyl, eluent: water/ethanol 38%: 62% (v/v) isocratic, column temperature: 60° C., injection volume: 50 μL, UV-detection at 243 nm) against an external standard.

Data set [3] in a line: Stability under elevated pressure (recrystallization). The conditions noted are these: pressure of up to 2.500 for 5 min. The source says:
Such a stability against pressure is particularly desirable when a pharmaceutical agent is used for preparation of solid pharmaceutical compositions such as tablets or granules.

Experimental findings from US20100120737A1, “Amorphous ciclesonide” (priority 2008, published 2010) are described below.

≈ marks a conversion by molar mass, not a printed value.

Take `CC(C)C(=O)OCC(=O)[C@@]12OC(C3CCCCC3)O[C@@H]1CC1[C@@H]3CCC4=CC(=O)C=C[C@]4(C)[C@H]3[C@@H](O)C[C@@]12C` (stereo partly drawn) [amorphous ciclesonide, 16,17-[(Cyclohexyl-methylene)bis(oxy)]-11-hydroxy-21-(2-methyl-1-oxopropoxy)-pregna-1,4-diene-3,20-dione[11β,16α]]: in the data set “Hygroscopicity”, the hygroscopicity entry is recorded as “not hygroscopic”. In addition, the “concentration of dissolved ingredient after 20 minutes” value in data set [1] (37° C., after 20 minutes) amounted to 340 ng/mL. Further, in data set [1] (37° C., after 24 hours), the “concentration of dissolved ciclesonide after 24 hours” value is 105 ng/mL. Further, the “concentration of dissolved ingredient within 5 minutes” value in data set [1] (37° C., within 5 minutes) stood at 290 ng/mL. Further, in data set [1] (after 1 hour, amorphous vs crystalline), the “concentration of dissolved ingredient relative to crystalline ciclesonide after 1 hour” value is recorded as “about sevenfold”. The compound further had a saturation solubility in data set [2] (37° C.) of 0.0916 ± 0.0052 µg/mL. Also, the recrystallization under pressure result in data set [3] is recorded as “did not show any signs of recrystallization”.
What is called solubility is the concentration that dissolves in the medium under given conditions. A low value points to a poorly soluble substance. The compound `CC(C)C(=O)OCC(=O)[C@@]12OC(C3CCCCC3)O[C@@H]1CC1[C@@H]3CCC4=CC(=O)C=C[C@]4(C)[C@H]3[C@@H](O)C[C@@]12C` (stereo partly drawn) [crystalline ciclesonide, 16,17-[(Cyclohexyl-methylene)bis(oxy)]-11-hydroxy-21-(2-methyl-1-oxopropoxy)-pregna-1,4-diene-3,20-dione[11β,16α], reference compound] had a solubility at 1 h in data set [1] (pH 6, thermodynamic from solid, 37° C., after 1 hour) of about 0.05 µg/mL (≈ 0.0925 µM). The same compound came in with a solubility at 24 h in data set [2] (37 °C, pH 6, water, thermodynamic from solid) of about 0.091 µg/mL (≈ 0.168 µM).
